According to US4010264A, “7-[3-Substituted isoxazol-5-yl]-acetamido-cephalosporanic acids and their anti-bacterial use” (Koninklijke Nederlandsche Gist-en Spiritusfabriek N.V., priority 1970, dated 1977):
Converted amounts (≈) assume the structure as drawn. Where a name gives a salt, the structure may show the parent alone.

Key:
[1] = system: Staphylococcus aureus A 2001; test: in vivo infection test in mice; conditions: A2001, in Mus musculus
[2] = system: Klebsiella pneumoniae A809; test: MIC, agar serial dilution test; format: cell-based; conditions: Klebsiella pneumoniae A809; 24 hours at 37° C; read-out: MIC
[3] = system: Staphylococcus aureus A 321; test: in vivo infection test in mice; conditions: A321, in Mus musculus
[4] = system: Staphylococcus aureus A 2000; test: in vivo infection test in mice; conditions: A2000, in Mus musculus
[5] = system: Staphylococcus aureus A321; test: MIC, agar serial dilution test; format: cell-based; conditions: Staphylococcus aureus A321; 24 hours at 37° C; read-out: MIC
[6] = system: Bacillus subtilis ATCC 6633; test: MIC, agar serial dilution test; format: cell-based; conditions: ATCC6633; Bacillus subtilis ATCC 6633; 24 hours at 37° C; read-out: MIC
[7] = system: Staphylococcus aureus L160a (penicillinase-producing); test: MIC, agar serial dilution test; conditions: 24 h
[8] = system: Salmonella typhi murium R 172; test: in vivo infection test in mice; conditions: Salmonella enterica, in Mus musculus, ip
[9] = system: Staphylococcus aureus A 321; test: prophylactic experiment against an infection in mice; format: in vivo, female mice (Swiss)
Excerpt: B. Activity of the compound of example III in a prophylactic experiment against an infection with Staphylococcus aureus A 321. […] Administered doses: Tested compound dissolved in physiological NaCl-solution. Group A: one dose administered four hours before the intraperitoneal infection Group B: one dose administered two hours before the intraperitoneal infection.

Brucella melitensis A488 = test: microbe, parasite or virus in culture; format: cell-based; conditions: A488, 24 h
Proteus mirabilis O.T. = test: in vivo infection test in mice; conditions: in Mus musculus, ip
[10] = system: Streptococcus faecalis L 80; test: MIC, agar serial dilution test; format: cell-based; conditions: Enterococcus faecalis, L80; Streptococcus faecalis L 80; 24 hours at 37° C; read-out: MIC
[11] = system: Streptococcus haemolyticus A266; test: MIC, agar serial dilution test; format: cell-based; conditions: Streptococcus haemolyticus A266; 24 hours at 37° C; read-out: MIC
[12] = system: Staphylococcus aureus A355 (penicillinase-producing); test: MIC, agar serial dilution test; conditions: 24 h
[13] = system: Diplococcus pneumoniae L 54; test: MIC, agar serial dilution test; format: cell-based; conditions: Streptococcus pneumoniae, L54; Diplococcus pneumoniae L 54; 24 hours at 37° C; read-out: MIC
test organisms = test: M.I.C. comparison with dicloxacillin; format: cell-based; conditions: compared with dicloxacillin
Description: Peak blood levels of the two drugs were reached after 1 hour with the tested compound giving levels of 5.4 μg/ml and dicloxacillin 27 μg/ml. After 4 hours, these levels were 2.2 μg/ml and 7.1 μg/ml respectively. […] However, the M.I.C. values for the tested compound were approximately 5 - 10 times less so that the overall result was better and this was reflected in the in vivo results.

[14] = system: Pseudomonas aeruginosa A 1058; test: in vivo infection test in mice; conditions: A1058, in Mus musculus, ip
binding to serum protein = format: in vitro ADME; conditions: serum protein; read-out: extent bound to serum protein
serum protein = test: binding to serum protein; format: in vitro ADME
in vivo = test: in vivo; design: species or system rabbits; conditions: rabbit, im, 50 mg/kg; for blood level: 4 h
Excerpt: C. Serum levels of the tested compound and dicloxacillin.

[15] = system: Staphylococcus aureus A55; test: MIC, agar serial dilution test; format: cell-based; conditions: Staphylococcus aureus A55; 24 hours at 37° C; read-out: MIC
[16] = system: Pasteurella multocida A723; test: MIC, agar serial dilution test; format: cell-based; conditions: Pasteurella multocida A723; 24 hours at 37° C; read-out: MIC
[17] = A321, ip, 2 h, Group B: one dose two hours before i.p. infection, administration i.p.
[18] = A321, ip, 4 h, Group A: one dose four hours before i.p. infection, administration i.p.
[19] = A321, po, 2 h, Group B: one dose two hours before i.p. infection, administration per os
[20] = A321, po, 4 h, Group A: one dose four hours before i.p. infection, administration per os

Structure (SMILES) | ED50 ([1]; ip) [mg/kg] | ED50 ([1]; po) [mg/kg] | ED50 ([1]; sc) [mg/kg] | MIC [2] [µg/mL] | ED50 ([3]; po) [mg/kg] | ED50 ([3]; sc) [mg/kg] | ED50 ([4]; ip) [mg/kg] | ED50 ([4]; po) [mg/kg] | ED50 ([4]; sc) [mg/kg] | MIC [5] [µg/mL] | MIC [6] [µg/mL] | MIC [7] [µg/mL] | ED50 [9, 17] [mg/kg] | ED50 [9, 18] [mg/kg] | ED50 [9, 19] [mg/kg] | ED50 [9, 20] [mg/kg] | MIC (Brucella melitensis A488) [µg/mL] | MIC [10] [µg/mL] | MIC [11] [µg/mL] | MIC [12] [µg/mL] | other results
CC(=O)OCC1=C(C(=O)O)N2C(=O)C(NC(=O)Cc3cc(-c4c(Cl)cccc4Cl)no3)C2SC1 (stereo not shown) [Example III, Sodium salt of 7-{[3-(2,6-dichlorophenyl)-isoxazol-5-yl]acetamido}cephalosporanic acid] | 2.87 | ~200 | > 215 | 12.5 | 61.9 | 5.11 | 1.78 | > 215 | 75 | ~0.007 | ~0.007 | 0.06 | < 21.5 | 21.5 to 46.5 | < 21.5 | ~465 | 1 | 0.5 | ~0.007 | 0.12 | ED50 [8]: ~200 mg/kg; ED50 (Proteus mirabilis O.T.): ~200 mg/kg; MIC [13]: 0.007 µg/mL; M.I.C. values, times less than dicloxacillin (test organisms): 5 - 10 times; ED50 [14]: > 215 mg/kg; fraction bound to serum protein (binding to serum protein): ~0.5; amount of free drug in the serum compared with dicloxacillin (serum protein; 50 mg/kg intramuscular, rabbits): of the same order; Cmax at 1 h (in vivo): 5400 ng/mL; Tmax (in vivo): 1 h; concentration at 1 h (in vivo): 5400 ng/mL; concentration at 4 h (in vivo): 2200 ng/mL; blood level (in vivo): 2200 ng/mL; MIC [15]: 0.015 µg/mL; MIC [16]: 1 µg/mL
Cc1onc(-c2c(Cl)cccc2Cl)c1C(=O)N[C@@H]1C(=O)N2[C@@H]1SC(C)(C)[C@@H]2C(=O)O [Dicloxacillin, reference compound] | 1.71 | 110 | 133 | 25 (≈ 53.2 µM) | 92.6 | 126 | 5.84 | 92.6 | 92.6 | 0.12 (≈ 0.255 µM) | 0.12 (≈ 0.255 µM) | 0.25 (≈ 0.532 µM) | 46.5 to 100 | < 21.5 | 215 to 465 | 46.5 to 100 | > 100 | 12.5 (≈ 26.6 µM) | 0.06 (≈ 0.128 µM) | 0.5 (≈ 1.06 µM) | MIC [13]: 0.5 µg/mL (≈ 1.06 µM); binding to serum protein (in words) (serum protein; serum protein): almost completely bound to serum protein; Cmax at 1 h (in vivo): 27000 ng/mL; Tmax (in vivo): 1 h; concentration at 1 h (in vivo): 27000 ng/mL; concentration at 2 h (in vivo): 18800 ng/mL; concentration at 4 h (in vivo): 7100 ng/mL; blood level (in vivo): 7100 ng/mL; MIC [15]: 0.06 µg/mL (≈ 0.128 µM); MIC [16]: 6 µg/mL (≈ 12.8 µM)
